Source: ChEMBL document CHEMBL3217485, “Understanding and overcoming aminoglycoside resistance caused by N-6'-acetyltransferase” (Medchemcomm, 2012)
Converted amounts (≈) assume the structure as drawn. The source made the active and inactive calls. No cut-off for these calls is given here. Where a SMILES comes first, the peptide text is derived from it. [ ]: non-standard residue; d: D form. Orn = NCCC[C@H](N)C(=O)O

Assays:
[1] = Inhibition of AAC(6')-li (unknown origin)
[2] = Inhibition of AAC(6')-le (unknown origin)
Escherichia coli = experiment: Antibacterial activity against kanamycin-resistant Escherichia coli K-12 R5 expressing AAC(6') enzyme; type: functional
Pseudomonas aeruginosa = experiment: Antibacterial activity against kanamycin-resistant Pseudomonas aeruginosa GN315 expressing AAC(6') enzyme; type: functional
Aac(6')-Ii protein = Aac(6')-Ii protein (Enterococcus faecium, UniProt Q47764); experiment: Inhibition of Enterococcus faecium AAC(6')-li
Chain of Aac(6')-Ii protein (Q47764 whole entry): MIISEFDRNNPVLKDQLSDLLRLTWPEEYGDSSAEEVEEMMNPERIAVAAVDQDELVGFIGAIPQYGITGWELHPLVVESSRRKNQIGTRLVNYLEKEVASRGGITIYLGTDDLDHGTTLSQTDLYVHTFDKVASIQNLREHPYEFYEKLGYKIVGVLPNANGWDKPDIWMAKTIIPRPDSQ

[3] = Activity at AAC(6')-li (unknown origin)

CC(C)(COP(=O)(O)OP(=O)(O)OC[C@H]1O[C@@H](n2cnc3c(N)ncnc32)[C@H](O)[C@@H]1OP(=O)(O)O)[C@@H](O)C(=O)NCCC(=O)NCCSCCCCCC(=O)NC[C@H]1O[C@H](O[C@H]2[C@H](O)[C@@H](O)[C@H](N)C[C@@H]2N)[C@H](N)[C@@H](O)[C@@H]1O
Ki [1]: 5.2 µM

H-ILAWKWAWWAWRR-OH
inhibition [2]: inactive
IC50 [1]: 4.4 µM

CNC[C@H]1O[C@H](O[C@H]2[C@H](O)[C@@H](O[C@@H]3O[C@@H](CO)[C@H](O)[C@@H](N)[C@@H]3O)[C@H](NC(=O)[C@@H](O)CCN)C[C@@H]2N)[C@H](O)[C@@H](O)[C@@H]1O
MIC (Escherichia coli): 1.56 µg/mL (≈ 2.6 µM)
MIC (Pseudomonas aeruginosa): 25 µg/mL (≈ 41.7 µM)

CC(C)C[C@@H]1NC(=O)[C@H](CCCN)NC(=O)[C@H](C(C)C)NC(=O)[C@@H]2CCCN2C(=O)[C@@H](Cc2ccccc2)NC(=O)[C@H](CC(C)C)NC(=O)[C@H](CCCN)NC(=O)[C@H](C(C)C)NC(=O)[C@@H]2CCCN2C(=O)[C@@H](Cc2ccccc2)NC1=O [GRAMICIDIN S] (cyclo(L[dF]PV[Orn]L[dF]PV[Orn]))
IC50 [2]: 14 µM
inhibition [1]: inactive

CC(C)C[C@H](NC(=O)[C@H](CCCNC(=N)N)NC(=O)CNC(=O)CNC(=O)[C@@H](N)CCCNC(=N)N)C(=O)N[C@@H](CS)C(=O)N[C@@H](Cc1ccc(O)cc1)C(=O)N[C@@H](CS)C(=O)N[C@@H](CCCNC(=N)N)C(=O)N[C@@H](CCCNC(=N)N)C(=O)N[C@@H](CCCNC(=N)N)C(=O)N[C@@H](Cc1ccccc1)C(=O)N[C@@H](CS)C(=O)N[C@H](C(=O)N[C@@H](CS)C(=O)N[C@H](C(=O)NCC(=O)N[C@@H](CCCNC(=N)N)C(=O)O)C(C)C)C(C)C (H-RGGRLCYCRRRFCVCVGR-OH)
inhibition [2]: inactive
inhibition [1]: inactive

CC(=O)CC(=O)N(CCCc1ccccc1)CC(C)(C)[C@@H](O)C(=O)NCCC(=O)NCCSCC(=O)NC[C@H]1O[C@H](O[C@H]2[C@H](O)[C@@H](O)[C@H](N)C[C@@H]2N)[C@H](N)[C@@H](O)[C@@H]1O
Ki (Aac(6')-Ii protein): ≥ 200 µM

CC(C)(COC(=O)CCC(=O)O)[C@@H](O)C(=O)NCCC(=O)NCCSCC(=O)NC[C@H]1O[C@H](O[C@H]2[C@H](O)[C@@H](O)[C@H](N)C[C@@H]2N)[C@H](N)[C@@H](O)[C@@H]1O
Ki (Aac(6')-Ii protein): ≥ 1000 µM

CC(=O)CC(=O)NCC(C)(C)[C@@H](O)C(=O)NCCC(=O)NCCSCC(=O)NC[C@H]1O[C@H](O[C@H]2[C@H](O)[C@@H](O)[C@H](N)C[C@@H]2N)[C@H](N)[C@@H](O)[C@@H]1O
Ki (Aac(6')-Ii protein): ≥ 200 µM

CC(C)(CO)[C@@H](O)C(=O)NCCC(=O)NCCSCCC(=O)NC[C@H]1O[C@H](O[C@H]2[C@H](O)[C@@H](O)[C@H](N)C[C@@H]2N)[C@H](N)[C@@H](O)[C@@H]1O
Ki (Aac(6')-Ii protein): ≥ 500 µM

H-ILKKWPWWPWRRK-OH
inhibition [2]: inactive
IC50 [1]: 23 µM

H-KWKKFIKSLTKAAKTVVKTAKKPLIV-OH
inhibition [2]: inactive
IC50 [1]: 24 µM

CC[C@H](C)[C@H](NC(=O)[C@H](CC(C)C)NC(=O)[C@H](C)NC(=O)[C@@H]1CCCN1C(=O)[C@H](CC(C)C)NC(=O)CNC(=O)[C@@H](NC(=O)[C@@H](NC(=O)[C@H](CC(C)C)NC(=O)[C@@H](NC(=O)[C@H](CCCCN)NC(=O)[C@H](CCCCN)NC(=O)[C@@H](NC(=O)[C@H](C)NC(=O)[C@@H](NC(=O)[C@@H](NC(=O)[C@H](CC(C)C)NC(=O)[C@H](CCCCN)NC(=O)[C@H](CCCCN)NC(=O)[C@@H](NC(=O)[C@H](Cc1ccccc1)NC(=O)[C@H](CO)NC(=O)[C@H](CCCCN)NC(=O)[C@H](Cc1c[nH]c2ccccc12)NC(=O)[C@@H](N)CCCCN)[C@@H](C)CC)[C@@H](C)O)[C@@H](C)O)C(C)C)C(C)C)[C@@H](C)O)[C@@H](C)O)C(=O)N[C@@H](CO)C(=O)O
IC50 [2]: 21 µM
inhibition [1]: inactive

CC(C)(COP(=O)(O)OP(=O)(O)OC[C@H]1O[C@@H](n2cnc3c(N)ncnc32)[C@H](O)[C@@H]1OP(=O)(O)O)[C@@H](O)C(=O)NCCC(=O)NCCSCC(=O)NC[C@H]1O[C@H](O[C@H]2[C@H](O)[C@@H](O)[C@H](N)C[C@@H]2N)[C@H](N)[C@@H](O)[C@@H]1O
Ki [1]: 0.076 µM

CC(C)(COP(=O)(O)OP(=O)(O)OC[C@H]1O[C@@H](n2cnc3c(N)ncnc32)[C@H](O)[C@@H]1OP(=O)(O)O)[C@@H](O)C(=O)NCCC(=O)NCCSCCCCC(=O)NC[C@H]1O[C@H](O[C@H]2[C@H](O)[C@@H](O)[C@H](N)C[C@@H]2N)[C@H](N)[C@@H](O)[C@@H]1O
Ki [1]: 8 µM

CC(C)(CO)[C@@H](O)C(=O)NCCC(=O)NCCSCCCC(=O)NC[C@H]1O[C@H](O[C@H]2[C@H](O)[C@@H](O)[C@H](N)C[C@@H]2N)[C@H](N)[C@@H](O)[C@@H]1O
Ki (Aac(6')-Ii protein): ≥ 500 µM

CC(C)(CO)[C@@H](O)C(=O)NCCC(=O)NCCSCC(=O)NC[C@H]1O[C@H](O[C@H]2[C@H](O)[C@@H](O)[C@H](N)C[C@@H]2N)[C@H](N)[C@@H](O)[C@@H]1O
Ki (Aac(6')-Ii protein): ≥ 500 µM

CC(C)(CO)[C@@H](O)C(=O)NCCC(=O)NCCSCCCCCC(=O)NC[C@H]1O[C@H](O[C@H]2[C@H](O)[C@@H](O)[C@H](N)C[C@@H]2N)[C@H](N)[C@@H](O)[C@@H]1O
Ki (Aac(6')-Ii protein): ≥ 500 µM

N[C@H]1[C@@H](O[C@H]2[C@H](O)[C@@H](O)[C@H](N)C[C@@H]2N)O[C@H](CNC(=O)CO)[C@@H](O)[C@@H]1O
Km [3]: > 500 µM

CC(C)(CO)[C@@H](O)C(=O)NCCC(=O)NCCSCCCCC(=O)NC[C@H]1O[C@H](O[C@H]2[C@H](O)[C@@H](O)[C@H](N)C[C@@H]2N)[C@H](N)[C@@H](O)[C@@H]1O
Ki (Aac(6')-Ii protein): ≥ 500 µM

CC(=O)CC(=O)N(CCc1ccccc1)CC(C)(C)[C@@H](O)C(=O)NCCC(=O)NCCSCC(=O)NC[C@H]1O[C@H](O[C@H]2[C@H](O)[C@@H](O)[C@H](N)C[C@@H]2N)[C@H](N)[C@@H](O)[C@@H]1O
Ki (Aac(6')-Ii protein): ≥ 200 µM

CC(C)(COP(=O)(O)OP(=O)(O)OC[C@H]1O[C@@H](n2cnc3c(N)ncnc32)[C@H](O)[C@@H]1OP(=O)(O)O)[C@@H](O)C(=O)NCCC(=O)NCCSCCCC(=O)NC[C@H]1O[C@H](O[C@H]2[C@H](O)[C@@H](O)[C@H](N)C[C@@H]2N)[C@H](N)[C@@H](O)[C@@H]1O
Ki [1]: 0.161 µM

H-KWKSFIKKLTSAAKKVTTAAKPLTK-OH
IC50 [2]: 38 µM
inhibition [1]: inactive

CC(=O)CC(=O)N(Cc1ccccc1)CC(C)(C)[C@@H](O)C(=O)NCCC(=O)NCCSCC(=O)NC[C@H]1O[C@H](O[C@H]2[C@H](O)[C@@H](O)[C@H](N)C[C@@H]2N)[C@H](N)[C@@H](O)[C@@H]1O
Ki (Aac(6')-Ii protein): ≥ 200 µM

CC(C)(COP(=O)(O)OP(=O)(O)OC[C@H]1O[C@@H](n2cnc3c(N)ncnc32)[C@H](O)[C@@H]1OP(=O)(O)O)[C@@H](O)C(=O)NCCC(=O)NCCSCCC(=O)NC[C@H]1O[C@H](O[C@H]2[C@H](O)[C@@H](O)[C@H](N)C[C@@H]2N)[C@H](N)[C@@H](O)[C@@H]1O
Ki [1]: 0.043 µM

NCC(=O)NC[C@H]1O[C@H](O[C@H]2[C@H](O)[C@@H](O)[C@H](N)C[C@@H]2N)[C@H](N)[C@@H](O)[C@@H]1O
Km [3]: > 500 µM

CC[C@H](C)[C@H](N)C(=O)N[C@@H](CC(C)C)C(=O)N1CCC[C@H]1C(=O)N[C@@H](Cc1c[nH]c2ccccc12)C(=O)N[C@@H](CCCCN)C(=O)N[C@@H](Cc1c[nH]c2ccccc12)C(=O)N1CCC[C@H]1C(=O)N[C@@H](Cc1c[nH]c2ccccc12)C(=O)N[C@@H](Cc1c[nH]c2ccccc12)C(=O)N1CCC[C@H]1C(=O)N[C@@H](Cc1c[nH]c2ccccc12)C(=O)N[C@@H](CCCN=C(N)N)C(=O)N[C@@H](CCCN=C(N)N)C(N)=O
inhibition [2]: inactive
IC50 [1]: 13 µM
